As a reminder, the Ki is the equilibrium dissociation constant of an inhibitor or competing ligand from its target.

The target in assay [1] is T1, GABA-A receptor; alpha-5/beta-3/gamma-2 (Homo sapiens, UniProt P18507+P28472+P31644).
T1 sequence (P18507 whole entry): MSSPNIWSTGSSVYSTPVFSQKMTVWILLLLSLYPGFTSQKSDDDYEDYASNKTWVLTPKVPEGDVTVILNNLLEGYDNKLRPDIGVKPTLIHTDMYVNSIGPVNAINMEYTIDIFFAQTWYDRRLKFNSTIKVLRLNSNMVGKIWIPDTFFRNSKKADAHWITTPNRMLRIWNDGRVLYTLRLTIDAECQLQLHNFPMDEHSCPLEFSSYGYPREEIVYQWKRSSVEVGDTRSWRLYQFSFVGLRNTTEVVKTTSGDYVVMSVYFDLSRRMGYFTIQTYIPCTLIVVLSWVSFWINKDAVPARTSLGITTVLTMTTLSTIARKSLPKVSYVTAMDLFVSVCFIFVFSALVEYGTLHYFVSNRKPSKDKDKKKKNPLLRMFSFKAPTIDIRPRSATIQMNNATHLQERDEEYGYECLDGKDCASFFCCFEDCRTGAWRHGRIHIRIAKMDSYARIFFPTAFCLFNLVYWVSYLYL
T1 sequence (P28472 whole entry): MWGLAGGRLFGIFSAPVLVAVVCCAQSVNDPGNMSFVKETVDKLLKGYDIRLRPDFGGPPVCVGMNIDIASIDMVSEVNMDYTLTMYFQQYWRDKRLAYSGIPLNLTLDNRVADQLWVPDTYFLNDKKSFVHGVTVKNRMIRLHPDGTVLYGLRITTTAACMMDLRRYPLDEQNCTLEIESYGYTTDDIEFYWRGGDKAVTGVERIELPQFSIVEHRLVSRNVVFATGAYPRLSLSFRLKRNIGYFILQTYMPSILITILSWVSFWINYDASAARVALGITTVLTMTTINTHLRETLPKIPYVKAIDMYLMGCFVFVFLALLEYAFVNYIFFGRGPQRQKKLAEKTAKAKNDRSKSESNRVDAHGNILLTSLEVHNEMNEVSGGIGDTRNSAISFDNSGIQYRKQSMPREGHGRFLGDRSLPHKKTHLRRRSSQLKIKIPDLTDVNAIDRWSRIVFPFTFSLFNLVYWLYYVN
T1 sequence (P31644 whole entry): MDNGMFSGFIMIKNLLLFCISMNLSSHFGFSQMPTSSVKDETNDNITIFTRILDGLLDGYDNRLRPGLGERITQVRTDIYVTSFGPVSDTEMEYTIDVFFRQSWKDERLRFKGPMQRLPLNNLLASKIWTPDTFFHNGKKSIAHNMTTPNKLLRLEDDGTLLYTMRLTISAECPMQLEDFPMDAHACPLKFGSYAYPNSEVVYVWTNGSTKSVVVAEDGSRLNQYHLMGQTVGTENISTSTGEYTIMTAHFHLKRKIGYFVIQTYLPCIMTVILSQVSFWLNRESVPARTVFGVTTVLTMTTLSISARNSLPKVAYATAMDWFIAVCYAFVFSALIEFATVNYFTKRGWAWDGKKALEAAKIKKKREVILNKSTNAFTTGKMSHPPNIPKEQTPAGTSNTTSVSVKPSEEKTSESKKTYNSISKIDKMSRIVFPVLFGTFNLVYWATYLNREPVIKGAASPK
The experiment in a line: Binding affinity to human recombinant GABA alpha-5-beta-3-gamma-2 receptor. In kind it is protein-complex assay.

Assay [2] concerns the target GABA A receptor alpha-4/beta-3/gamma-2 (Homo sapiens, UniProt P18507+P28472+P48169). The experiment in a line: Binding affinity to human recombinant GABA alpha-4-beta-3-gamma-2 receptor. In kind it is protein-complex assay.

Chain of GABA A receptor alpha-4/beta-3/gamma-2 (P48169 whole entry, one chain of several): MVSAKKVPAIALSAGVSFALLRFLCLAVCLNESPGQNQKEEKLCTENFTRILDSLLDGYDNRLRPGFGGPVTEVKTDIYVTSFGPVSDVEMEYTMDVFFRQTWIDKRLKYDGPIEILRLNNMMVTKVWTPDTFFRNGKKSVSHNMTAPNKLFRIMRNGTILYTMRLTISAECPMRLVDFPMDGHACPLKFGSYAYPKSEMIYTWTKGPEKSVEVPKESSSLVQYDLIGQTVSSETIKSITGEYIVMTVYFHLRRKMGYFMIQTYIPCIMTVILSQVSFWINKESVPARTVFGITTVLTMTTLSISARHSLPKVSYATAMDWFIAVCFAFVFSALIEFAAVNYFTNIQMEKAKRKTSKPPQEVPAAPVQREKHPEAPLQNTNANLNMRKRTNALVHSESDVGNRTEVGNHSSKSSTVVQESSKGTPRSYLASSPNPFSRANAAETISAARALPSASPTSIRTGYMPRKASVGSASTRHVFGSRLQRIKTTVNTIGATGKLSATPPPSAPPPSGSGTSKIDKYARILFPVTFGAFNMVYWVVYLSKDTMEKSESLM

With `CC(=O)c1ncn2c1CN(C)C(=O)c1cc(Cl)ccc1-2`, the results for the Ki in assay [1] and in assay [2] were 29500 nM and 2610 nM, respectively.

With `COCc1ncn2c1CN(C)C(=O)c1cc(Cl)ccc1-2`, the Ki was greater than 300 nM in assay [1] and 38.8 nM in assay [2].

These data come from ChEMBL document CHEMBL1275264, “The GABA(A) receptor as a target for photochromic molecules” (Bioorg Med Chem, 2010).
